{
  "source": "patent US20160375103A1",
  "about": "“DIURETIC AND NATRIURETIC POLYPEPTIDES” (Mayo Foundation for Medical Education and Research, priority 2006, published 2016)",
  "key": {"[1]": {"tested_on": "HUVECs", "assay": "cGMP levels in HUVECs", "assay_type": "cell-based, human", "text": "FIG. 11 is a bar graph plotting cGMP levels in HUVECS treated with BNP, ASBNP, or ASBNP.1 at the indicated concentrations. OX represents oxidized, and non-OX represents non-oxidized.\n(§1) In some embodiments, a polypeptide provide herein can lack the ability to stimulate production of cGMP in human umbilical vascular endothelial cells (HUVEC). Intracellular cGMP production can be assayed using, for example, the BIOTRACK cGMP enzyme immunoassay kit (Amersham Pharmacia Biotech). In other embodiments, a polypeptide provide herein can lack vasoactivity. Vasoactivity can be assessed by determining responsitivity of a blood vessel (e.g., a carotid artery in an organ chamber) to the polypeptide.\n(§2) The following experiments were performed to compare the activities of BNP, ASBNP, and ASBNP.1 polypeptides. Briefly, synthesized forms of BNP, ASBNP, and ASBNP.1 were administered to HUVECs and HASMCs, and cGMP levels were determined."}, "[2]": {"tested_on": "HASMCs", "assay": "cGMP levels in HASMCs", "assay_type": "cell-based", "description": "FIG. 12 is a bar graph plotting cGMP levels in HASMCS treated with BNP, ASBNP, or ASBNP.1 at the indicated concentrations. OX represents oxidized, and non-OX represents non-oxidized.\nas §2"}, "[3]": {"tested_on": "normal dogs", "assay": "intravenous infusion of ASBNP.1 in normal dogs", "assay_type": "in vivo, dog", "description": "A truncated form of ASBNP that terminates prior to the cysteine and contains a 13 amino acid C-terminus tail was designed and synthesized. This polypeptide is referred to as an ASBNP.1 polypeptide (FIG. 1). The biological effects of intravenous ABNP.1 infusion were tested in normal dogs. Briefly, six normal dogs were infused with 2, 10, and 100 pmol of an ASBNP.1 polypeptide preparation, i.e., each dog received consecutive infusions of 2, 10, and 100 pmol of an ASBNP.1 polypeptide preparation. Urine flow, urinary sodium excretion, distal fractional tubular sodium reabsorption, proximal tubular fractional sodium reabsorption, mean arterial blood pressure, plasma cGMP levels, glomerular filtration rate, renal blood flow, and plasma renin levels were measured as described elsewhere (Chen et al., Am. J. Physiol. Regul. Integr. Comp. Physiol., 288: R1093-R1097 (2005) and Haber et al., J. Clin. Endocrinol. Metab., 29:1349-1355 (2005)). […] Systemic administration of the ASBNP.1 polypeptide had no effect on glomerular filtration rate, renal blood flow, or mean arterial blood pressure (FIGS. 8-10)."}, "[4]": {"tested_on": "paced dog model of congestive heart failure (CHF)", "assay": "intravenous infusion in paced dog model of congestive heart failure (CHF), consecutive doses", "assay_type": "in vivo", "settings": "paced CHF dogs", "description": "The biological effects of intravenous ABNP.1 infusion were tested in a paced dog model of congestive heart failure (CHF). Briefly, 10 dogs underwent surgical implantation of a programmable cardiac pacemaker (Medtronic, Minneapolis, Minn.). After postoperative recovery, the animals received 11 days of rapid ventricular pacing (240 beats/minute), which can induce overt congestive heart failure CHF as described elsewhere (Chen et al., Circulation, 100:2443-2448 (1999)). The dogs were intravenously infused with 2, 10, and 100 pmol of an ASBNP.1 polypeptide preparation, i.e., each dog received consecutive infusions of 2, 10, and 100 pmol of an ASBNP.1 polypeptide preparation.\nAcute hemodynamic studies were performed at the time of infusion, and comparisons were made between groups and among dogs at baseline and during each infusion. Urine flow, urinary sodium excretion, distal fractional tubular sodium reabsorption, proximal tubular fractional sodium reabsorption, plasma cGMP levels, rennin levels, glomerular filtration rate, renal blood flow, mean arterial blood pressure, urinary cGMP excretion, urinary ANP excretion, urinary BNP excretion, plasma BNP levels, plasma ANP levels, pulmonary capillary wedge pressure, cardiac output, systemic vascular resistance, angiotensin II levels, and aldosterone levels were measured as described elsewhere (Chen et al., Am. J. Physiol. Regul. Integr. Comp. Physiol., 288: R1093-R1097 (2005) and Haber et al., J. Clin. Endocrinol. Metab., 29:1349-1355 (2005)). […] There was no effect on distal tubular fractional sodium reabsorption, proximal tubular fractional sodium reabsorption renal blood flow, plasma cGMP, mean arterial blood pressure, plasma BNP, plasma ANP, pulmonary capillary wedge pressure, or angiotensin II levels (FIGS. 17, 18, 19, 22, 23, 28, 29, and 32)."}, "[5]": {"tested_on": "rabbit artery that was pre-constricted", "assay": "vasoactivity in pre-constricted rabbit artery (vascular rings)", "settings": "compared with BNP", "text": "FIG. 13 is a line graph plotting vasoactivity measurements obtained from rabbit vascular rings treated with either BNP, ASBNP, or ASBNP.1 at the indicated concentrations.\nas §1, §2"}, "[6]": {"tested_on": "paced dogs", "assay": "90 minute infusion of ASBNP.1 (100 pmol/kg/minute) in paced dogs", "assay_type": "in vivo, dog", "settings": "100 pmol/kg/minute for 90 minutes", "description": "FIG. 34 is a graph plotting urinary sodium excretion (microEq/min) in paced dogs at the indicated times after beginning administration of ASBNP.1 polypeptide (100 pmol/kg/minute) for 90 minutes. BL=baseline; 30 min=30 minutes of ASBNP.1 polypeptide administration; 60 min=60 minutes of ASBNP.1 polypeptide administration; 90 min=90 minutes of ASBNP.1 polypeptide administration; Washout=after washout period at stop of infusion; Rec 1=30 minutes after stopping infusion; and Rec 2=60 minutes after stopping infusion.\nIn another experiment, an ASBNP.1 polypeptide preparation was administered to dogs (100 pmol/kg/minute for 90 minutes). Urinary sodium excretion, urine flow, mean arterial blood pressure, renal blood flow, pulmonary capillary wedge pressure, and cardiac output were measured after 30, 60, and 90 minutes of administering the ASBNP.1 polypeptide. Administration of ASBNP.1 polypeptide was followed by a washout period of 30 minutes. The washout was performed by administering normal saline. Urinary sodium excretion, urine flow, mean arterial blood pressure, renal blood flow, pulmonary capillary wedge pressure, and cardiac output were measured again after the washout period, and after each of two recovery periods at 60 minutes (Rec 1) and 90 minutes (Rec 2) after administration of the ASBNP.1 polypeptide."}, "[7]": {"settings": "normal dogs, 2, 10, 100 pmol i.v."}, "[8]": {"settings": "normal dogs, consecutive i.v. infusions of 2, 10, 100 pmol"}, "[9]": {"settings": "consecutive i.v. infusions of 2, 10, 100 pmol"}},
  "data": [
    {"substance": "ASBNP.1: truncated form of ASBNP that terminates prior to the cysteine, 13 amino acid C-terminus tail; 42 amino acid residues (SEQ ID NO:1) (SPKMVQGSGCFGRKMDRISSSSGLGCKGKHPLPPRPPSPIPV)", "values": [
      {"measurement": "cGMP levels in HUVECs", "setting": "[1]", "value": "no effect"},
      {"measurement": "cGMP levels in HASMCs", "setting": "[2]", "value": "no effect"},
      {"measurement": "distal and proximal tubular fractional sodium reabsorption", "setting": "[3]; [7]", "value": "targeted distal tubules"},
      {"measurement": "glomerular filtration rate", "setting": "[3]; [7]", "value": "no effect"},
      {"measurement": "mean arterial blood pressure", "setting": "[3]; [7]", "value": "no effect"},
      {"measurement": "renal blood flow", "setting": "[3]; [7]", "value": "no effect"},
      {"measurement": "urinary sodium excretion (natriuretic effect)", "setting": "[3]; [8]", "value": "diuretic and natriuretic effects"},
      {"measurement": "urine flow (diuretic effect)", "setting": "[3]; [8]", "value": "diuretic and natriuretic effects"},
      {"measurement": "plasma cGMP", "setting": "[3]; normal dogs, super high is 100 pmol", "value": "elevated at the super high dose"},
      {"measurement": "plasma renin", "setting": "[3]; normal dogs, two higher doses 10 and 100 pmol", "value": "trend towards a decreased renin at the two higher doses"},
      {"measurement": "aldosterone", "setting": "[4]", "value": "increased from the administration of the low level of polypeptide and continued to increase throughout the remainder of the experiment"},
      {"measurement": "angiotensin II levels", "setting": "[4]", "value": "no effect"},
      {"measurement": "cardiac output", "setting": "[4]", "value": "decreased from the administration of the high level of polypeptide and remained decrease throughout the remainder of the experiment"},
      {"measurement": "distal tubular fractional sodium reabsorption", "setting": "[4]", "value": "no effect"},
      {"measurement": "mean arterial blood pressure", "setting": "[4]", "value": "no effect"},
      {"measurement": "plasma ANP", "setting": "[4]", "value": "no effect"},
      {"measurement": "plasma BNP", "setting": "[4]", "value": "no effect"},
      {"measurement": "plasma cGMP", "setting": "[4]", "value": "no effect"},
      {"measurement": "proximal tubular fractional sodium reabsorption", "setting": "[4]", "value": "no effect"},
      {"measurement": "pulmonary capillary wedge pressure", "setting": "[4]", "value": "no effect"},
      {"measurement": "renal blood flow", "setting": "[4]", "value": "no effect"},
      {"measurement": "renin", "setting": "[4]", "value": "increased throughout the washout period"},
      {"measurement": "systemic vascular resistance", "setting": "[4]", "value": "increased during the high, super high, washout, and recovery 1 phases"},
      {"measurement": "urinary sodium excretion (natriuretic effect)", "setting": "[4]; [9]", "value": "diuretic but not natriuretic effects"},
      {"measurement": "urine flow (diuretic effect)", "setting": "[4]; [9]", "value": "diuretic but not natriuretic effects"},
      {"measurement": "glomerular filtration rate", "setting": "[4]; high is 10 pmol", "value": "increased glomerular filtration rate at the high level"},
      {"measurement": "urinary cGMP excretion", "setting": "[4]; high is 10 pmol, super high is 100 pmol", "value": "increased urinary cGMP excretion at the high and super high levels"},
      {"measurement": "urinary ANP excretion", "setting": "[4]; high level (10 pmol)", "value": "increased urinary ANP excretion"},
      {"measurement": "urinary BNP excretion", "setting": "[4]; super high level (100 pmol)", "value": "increased urinary BNP excretion"},
      {"measurement": "vasoactivity on pre-constricted rabbit artery", "setting": "[5]", "value": "no effect"},
      {"measurement": "PAP (pulmonary arterial pressure)", "setting": "[6]", "value": "without a change"},
      {"measurement": "RAP (right arterial pressure)", "setting": "[6]", "value": "without a change"},
      {"measurement": "cardiac output", "setting": "[6]", "value": "No significant effect"},
      {"measurement": "mean arterial blood pressure", "setting": "[6]", "value": "No significant effect"},
      {"measurement": "renal blood flow", "setting": "[6]", "value": "No significant effect"},
      {"measurement": "urinary sodium excretion", "setting": "[6]", "value": "increase"},
      {"measurement": "urine flow", "setting": "[6]", "value": "increase"},
      {"measurement": "pulmonary capillary wedge pressure", "setting": "[6]; 60 minutes after administration", "value": "decrease"}
    ]},
    {"substance": "ASBNP: variant form of BNP generated by alternative splicing, 60 amino acid residues in length (SEQ ID NO:4) (SPKMVQGSGCFGRKMDRISSSSGLGCKGKHPLPPRPPSPIPVCDTVRVTLGFVVSGNHTL) [reference compound]", "values": [
      {"measurement": "cGMP levels in HUVECs", "setting": "[1]", "value": "minimal effects"},
      {"measurement": "cGMP levels in HASMCs", "setting": "[2]", "value": "minimal effects"},
      {"measurement": "vasoactivity on pre-constricted rabbit artery", "setting": "[5]", "value": "no effect"}
    ]}
  ]
}
